Values quoted from earlier work, collected in US6500801B1, “Treatment for Dutch elm disease” (The Governing Council of the University of Toronto, priority 1997, dated 2002).

Tested on: strains of O. ulmi

In the case of `CC1=Cc2c(c(C)cc3c2C(C)CO3)C(=O)C1=O` (stereo not drawn) [mansonone D], the “inhibition of growth of strains of O. ulmi” value (from here on “inhibition”) is listed as “inhibit the growth”.
In the case of `CC1=CC2=C(C(=O)C1=O)C(C)CCC2C(C)C` (stereo not drawn) [mansonone A], the “inhibition” value is listed as “inhibit the growth”.
For `CC1=COC2=C(C)C(=O)C(=O)c3c(C)ccc1c32` [mansonone F], the “inhibition” value is given as “inhibit the growth”.
For `CC1=Cc2c(c(C)cc(O)c2C(C)C)C(=O)C1=O` [mansonone G], the “inhibition” value is listed as “inhibit the growth”.
For `CC1=Cc2c(C(C)C)ccc(C)c2C(=O)C1=O` [mansonone C], the “inhibition” value is listed as “inhibit the growth”.
In the case of `CC1=C2OCC(C)c3ccc(C)c(c32)C(=O)C1=O` (stereo not drawn) [mansonone E], the “inhibition” value is given as “inhibit the growth”.
